Assay [1] deals with T1, PIKFYVE (Homo sapiens, UniProt Q9Y2I7).
T1 construct: host or cells: HEK293 (ATCC, CRL-1573)
Nature of the assay: NanoBRET TE Intracellular Kinase Assay, interaction of PIKFYVE and compounds in HEK293 cells. It counts as cell-based. As to conditions: IC50 class from BRET; HEK293 cells expressing PIKFYVE-NanoLuc; 2 hours incubation. The protocol: To predict the efficacy of the compounds according to Example on PIKFYVE in humans, the interaction between PIKFYVE and the compounds was tested using the HEK293 cell line derived from human embryonic kidney (ATCC, CRL-1573) via NanoBRETT TE Intracellular Kinase Assay Service of Carna biosciences Inc., (Japan). The evaluation method provided by Carna biosciences Inc., was shown below and the NanoBRET™ TE Intracellular Kinase Assay, K-8 Kit (Promega, CS1810C88) was used.
The HEK-293 cells cultured in Opti-MEM™ I Reduced Serum Medium (Thermo Fisher, 11058-021) were transfected with Transfection Carrier DNA (Promega, E4881), PIKFYVE-NanoLuc Fusion Vector (Promega, CS1810C225), and FuGENE HD Transfection Reagent (Promega, E2311) to produce cells expressing genes combining PIKFYVE and NanoLuc, followed by culturing 100 μl (2×10^5 cells/ml) each in 96-well plates (Corning, 3917).
10× compounds according to Examples or Comparative Examples prepared by concentration in 1× NanoBRET™ tracer reagent and DMSO were reacted in 96-well plates and incubated for 2 hours in a 37° C., 5% CO2 incubator.
After the reaction was completed, 3× Complete NanoBRET™ Nano-Glo Substrate solution was added to each well, and the reaction was allowed to run for 2-3 minutes at room temperature before BRET was measured using a GloMax Discover Multimode Microplate Reader (Promega).
(BRET reads energy transfer from a luciferase to a nearby fluorophore.)

Assay [2] addresses T2, human GST-PIKFYVE (Homo sapiens, UniProt Q9Y2I7).
T2 construct: GST; purchased Carna biosciences 11-118
Nature of the assay: ADP-Glo kinase assay, enzyme inhibition activity against human PIKFYVE (Carna biosciences). In kind it is biochemical. The conditions noted are these: inhibitory activity at final compound concentration 10 nM; 1 hour at room temperature. In short, it runs like this: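 Human GST-PIKFYVE (glutathione Sepharose-purified) was reacted with substrate and ATP for 1 h at room temperature in 50 mM MOPS, 1 mM DTT, pH 7.2, with compound at 10 nM final. ADP formed was read by ADP-Glo luminescence; inhibition was calculated against no-enzyme (100%) and no-compound (0%) controls.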
(In general: ADP-Glo turns the ADP formed in a reaction into a luminescent signal.)

Experimental findings from US20250388582A1, “NOVEL BICYCLIC HETEROARYL COMPOUND AND USE THEREOF” (ILDONG PHARMACEUTICAL CO., LTD., priority 2022, published 2025) are described below.

T2 sequence (Q9Y2I7 whole entry): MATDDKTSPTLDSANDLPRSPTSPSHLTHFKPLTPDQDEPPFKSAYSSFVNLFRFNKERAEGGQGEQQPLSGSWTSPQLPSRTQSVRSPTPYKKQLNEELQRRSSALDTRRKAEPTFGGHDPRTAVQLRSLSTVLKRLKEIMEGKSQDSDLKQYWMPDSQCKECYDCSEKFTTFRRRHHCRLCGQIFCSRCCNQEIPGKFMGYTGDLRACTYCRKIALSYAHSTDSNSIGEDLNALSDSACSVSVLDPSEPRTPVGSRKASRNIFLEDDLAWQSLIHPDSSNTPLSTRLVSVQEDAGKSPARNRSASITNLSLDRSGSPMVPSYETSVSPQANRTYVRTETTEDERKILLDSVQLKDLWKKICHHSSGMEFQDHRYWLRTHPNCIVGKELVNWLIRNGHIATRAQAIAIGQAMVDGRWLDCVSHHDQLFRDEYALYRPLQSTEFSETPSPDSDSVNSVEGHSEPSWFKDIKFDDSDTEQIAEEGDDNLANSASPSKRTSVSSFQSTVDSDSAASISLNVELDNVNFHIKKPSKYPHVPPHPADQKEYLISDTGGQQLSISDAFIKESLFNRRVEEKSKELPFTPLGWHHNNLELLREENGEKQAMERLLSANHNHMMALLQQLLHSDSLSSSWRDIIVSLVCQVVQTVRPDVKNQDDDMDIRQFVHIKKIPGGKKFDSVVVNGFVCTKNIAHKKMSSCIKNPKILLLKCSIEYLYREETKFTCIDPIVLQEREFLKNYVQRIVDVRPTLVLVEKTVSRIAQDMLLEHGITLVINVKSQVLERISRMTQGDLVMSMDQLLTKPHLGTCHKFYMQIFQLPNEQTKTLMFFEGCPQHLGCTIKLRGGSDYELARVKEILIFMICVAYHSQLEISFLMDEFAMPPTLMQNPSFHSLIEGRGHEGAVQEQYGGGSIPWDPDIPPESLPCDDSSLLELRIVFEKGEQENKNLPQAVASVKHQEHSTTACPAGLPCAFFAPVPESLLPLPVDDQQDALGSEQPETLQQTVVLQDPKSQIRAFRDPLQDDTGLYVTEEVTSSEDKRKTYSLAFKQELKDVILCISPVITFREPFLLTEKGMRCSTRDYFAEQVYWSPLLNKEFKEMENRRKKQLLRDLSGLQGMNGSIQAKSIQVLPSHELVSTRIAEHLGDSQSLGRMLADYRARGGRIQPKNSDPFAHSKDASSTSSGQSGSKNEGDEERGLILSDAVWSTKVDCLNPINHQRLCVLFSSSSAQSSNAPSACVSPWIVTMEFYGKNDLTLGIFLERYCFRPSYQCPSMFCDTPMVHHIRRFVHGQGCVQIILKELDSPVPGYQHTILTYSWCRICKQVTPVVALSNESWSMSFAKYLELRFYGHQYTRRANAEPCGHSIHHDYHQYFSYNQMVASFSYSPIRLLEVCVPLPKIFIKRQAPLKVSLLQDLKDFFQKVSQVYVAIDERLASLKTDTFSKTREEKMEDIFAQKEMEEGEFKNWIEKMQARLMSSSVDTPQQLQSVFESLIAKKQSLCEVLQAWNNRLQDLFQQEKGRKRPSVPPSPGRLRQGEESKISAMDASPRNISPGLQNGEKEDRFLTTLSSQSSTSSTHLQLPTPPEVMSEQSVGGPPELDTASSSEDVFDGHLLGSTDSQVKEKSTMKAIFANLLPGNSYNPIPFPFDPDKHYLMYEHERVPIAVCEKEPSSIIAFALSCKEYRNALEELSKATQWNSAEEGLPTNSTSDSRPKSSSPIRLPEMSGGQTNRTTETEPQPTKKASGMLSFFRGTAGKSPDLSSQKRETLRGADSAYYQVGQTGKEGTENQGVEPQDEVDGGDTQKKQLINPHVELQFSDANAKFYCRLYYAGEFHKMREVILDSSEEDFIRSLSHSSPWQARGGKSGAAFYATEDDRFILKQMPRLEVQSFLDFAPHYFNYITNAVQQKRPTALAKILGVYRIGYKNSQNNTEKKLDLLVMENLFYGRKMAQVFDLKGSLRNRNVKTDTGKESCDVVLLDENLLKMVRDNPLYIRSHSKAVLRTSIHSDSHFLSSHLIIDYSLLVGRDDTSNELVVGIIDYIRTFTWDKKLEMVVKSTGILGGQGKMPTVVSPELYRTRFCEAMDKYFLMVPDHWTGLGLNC
T1 sequence (Q9Y2I7 whole entry): as above

The IC50 is the concentration at which inhibition is half-maximal. As to `Cc1cccc(/C=N/Nc2nc(N3CCOCC3)nc3c2ncn3-c2cncc(C)c2)c1` [Example 145, (E)-4-(6-(2-(3-methylbenzylidene)hydrazinyl)-9-(5-methylpyridin-3-yl)-9H-purin-2-yl)morpholine], the 50% inhibitory concentration (IC50) in assay [1] was no more than 10 nM. Also, in assay [2], the “ADP-Glo kinase assay (%, 10 nM)” value is 94.29%.

With `Cc1cccc(/C=N/Nc2nc(N3CCOCC3)nc3c2ncn3CC(=O)c2ccc(C(F)(F)F)cc2)c1` [Example 45, (E)-2-(6-(2-(3-methylbenzylidene)hydrazinyl)-2-morpholino-9H-purin-9-yl)-1-(4-(trifluoromethyl)phenyl)ethan-1-one], the IC50 in assay [1] is 20 to 30 nM. Moreover, the “ADP-Glo kinase assay (%, 10 nM)” value in assay [2] is listed as 67.70%.

`Cc1ccc(-n2cnc3c(N/N=C/c4cccc(C)c4)nc(N4CCOCC4)nc32)nc1` [Example 143, (E)-4-(6-(2-(3-methylbenzylidene)hydrazinyl)-9-(5-methylpyridin-2-yl)-9H-purin-2-yl)morpholine] displayed an IC50 in assay [1] of no more than 10 nM. Besides, the “ADP-Glo kinase assay (%, 10 nM)” value in assay [2] came out at 90.79%.

In turn, `Cc1cccc(/C=N/Nc2nc(N3CCOCC3)nc3c2ncn3C2CCN(C(=O)c3ccncc3)CC2)c1` [Example 93, (E)-(4-(6-(2-(3-methylbenzylidene)hydrazinyl)-2-morpholino-9H-purin-9-yl)piperidin-1-yl)(pyridin-4-yl)methanone] came in with an IC50 in assay [1] of 20 to 30 nM. The “ADP-Glo kinase assay (%, 10 nM)” value in assay [2] stood at 66.78%.

Compound `Cc1cccc(/C=N/Nc2nc(N3CCOCC3)nc3c2ncn3-c2ccc(O)nc2)c1` [Example 114, (E)-5-(6-(2-(3-methylbenzylidene)hydrazinyl)-2-morpholino-9H-purin-9-yl)pyridin-2-ol] gave a 50% inhibitory concentration (IC50) in assay [1] of 20 to 30 nM. The “ADP-Glo kinase assay (%, 10 nM)” value in assay [2] came out at 80.06%.

In assay [1], `Cc1cccc(/C=N/Nc2nc(N3CCOCC3)nc3c2ncn3-c2ccc(C#N)cn2)c1` [Example 146, (E)-6-(6-(2-(3-methylbenzylidene)hydrazinyl)-2-morpholino-9H-purin-9-yl)nicotinonitrile] displayed an IC50 of no more than 10 nM. Moreover, in assay [2], the “ADP-Glo kinase assay (%, 10 nM)” value came out at 79.77%.

In turn, `Cc1cccc(/C=N/Nc2nc(N3CCOCC3)nc3c2ncn3CCc2ccccn2)c1` [Example 73, (E)-4-(6-(2-(3-methylbenzylidene)hydrazinyl)-9-(2-(pyridin-2-yl)ethyl)-9H-purin-2-yl)morpholine] yielded a concentration for half-maximal inhibition (IC50) in assay [1] of 10 to 20 nM. Further, in assay [2], the “ADP-Glo kinase assay (%, 10 nM)” value came out at 80.98%.

Compound `Cc1cccc(/C=N/Nc2nc(N3CCOCC3)nc3c2ncn3CC(=O)c2ccncc2)c1` [Example 32, (E)-2-(6-(2-(3-methylbenzylidene)hydrazinyl)-2-morpholino-9H-purin-9-yl)-1-(pyridin-4-yl)ethan-1-one] had an IC50 in assay [1] of 20 to 30 nM. In addition, the “ADP-Glo kinase assay (%, 10 nM)” value in assay [2] came out at 59.60%.

For the compound `Cc1cccc(/C=N/n2cnc3c(Nc4cccnc4)nc(N4CCOCC4)nc32)c1` [Example 191, (E)-9-((3-methylbenzylidene)amino)-2-morpholino-N-(pyridin-3-yl)-9H-purin-6-amine], in assay [1], the IC50 lay within 10 to 20 nM. The “ADP-Glo kinase assay (%, 10 nM)” value in assay [2] was determined as 76.59%.

In assay [1], `COc1cccc(-n2cnc3c(-n4ccc(-c5cccc(C)c5)n4)nc(N4CCOCC4)nc32)c1` [Example 137, 4-(9-(3-methoxyphenyl)-6-(3-(m-tolyl)-1H-pyrazol-1-yl)-9H-purin-2-yl)morpholine] displayed a half-maximal inhibitory concentration (IC50) of no more than 10 nM. Besides, the “ADP-Glo kinase assay (%, 10 nM)” value in assay [2] was 81.44%.

As for `Cc1cccc(/C=N/Nc2nc(N3CCOCC3)nc3c2ncn3C2CCN(C(=O)N(C)C)CC2)c1` [Example 90, (E)-N,N-dimethyl-4-(6-(2-(3-methylbenzylidene)hydrazinyl)-2-morpholino-9H-purin-9-yl)piperidine-1-carboxamide], the half-inhibitory concentration (IC50) in assay [1] was in the range of 20 to 30 nM. For the same compound, the “ADP-Glo kinase assay (%, 10 nM)” value in assay [2] stood at 66.88%.

For `Cc1cccc(/C=N/Nc2nc(N3CCOCC3)nc3c2ncn3-c2ccc(N(C)C)cc2)c1` [Example 123, (E)-N,N-dimethyl-4-(6-(2-(3-methylbenzylidene)hydrazinyl)-2-morpholino-9H-purin-9-yl)aniline], the half-maximal inhibitory concentration (IC50) in assay [1] is no more than 10 nM. In addition, the “ADP-Glo kinase assay (%, 10 nM)” value in assay [2] is 84.48%.

On to `Cc1cccc(/C=N/Nc2nc(N3CCOCC3)nc3c2ncn3CC(=O)c2cc(C(F)(F)F)ccn2)c1` [Example 52, (E)-2-(6-(2-(3-methylbenzylidene)hydrazinyl)-2-morpholino-9H-purin-9-yl)-1-(4-(trifluoromethyl)pyridin-2-yl)ethan-1-one], for which the concentration for half-maximal inhibition (IC50) in assay [1] lay within 20 to 30 nM. Also, the “ADP-Glo kinase assay (%, 10 nM)” value in assay [2] is reported as 67.10%.

In assay [1], `Cc1cccc(/C=N/Nc2nc(N3CCOCC3)nc3c2ncn3CC(=O)c2cccn2C)c1` [Example 30, (E)-1-(1-methyl-1H-pyrrol-2-yl)-2-(6-(2-(3-methylbenzylidene)hydrazinyl)-2-morpholino-9H-purin-9-yl)ethan-1-one] came in with an IC50 of 10 to 20 nM. Further, the “ADP-Glo kinase assay (%, 10 nM)” value in assay [2] came to 76.90%.

For `Cc1cccc(/C=N/Nc2nc(N3CCOCC3)nc3c2ncn3-c2ccnc(Cl)c2)c1` [Example 115, (E)-4-(9-(2-chloropyridin-4-yl)-6-(2-(3-methylbenzylidene)hydrazinyl)-9H-purin-2-yl)morpholine], the IC50 in assay [1] is no more than 10 nM. In assay [2], the “ADP-Glo kinase assay (%, 10 nM)” value was 92.24%.

`Cc1cccc(/C=N/Nc2nc(N3CCOCC3)nc3c2ncn3CC2CC2)c1` [Example 21, (E)-4-(9-(cyclopropylmethyl)-6-(2-(3-methylbenzylidene)hydrazinyl)-9H-purin-2-yl)morpholine] returned an IC50 in assay [1] of 20 to 30 nM. Besides, the “ADP-Glo kinase assay (%, 10 nM)” value in assay [2] is reported as 60.95%.

For the compound `Cc1cccc(/C=N/Nc2nc(N3CCOCC3)nc3c2ncn3CC(=O)c2cccc(F)c2)c1` [Example 46, (E)-1-(3-fluorophenyl)-2-(6-(2-(3-methylbenzylidene)hydrazinyl)-2-morpholino-9H-purin-9-yl)ethan-1-one], the 50% inhibitory concentration (IC50) in assay [1] fell in the range of 10 to 20 nM. In addition, the “ADP-Glo kinase assay (%, 10 nM)” value in assay [2] came out at 73.96%.

In assay [1], `Cc1cccc(/C=N/Nc2nc(N3CCOCC3)nc3c2ncn3C2CCN(C(=O)c3ccccc3)CC2)c1` [Example 89, (E)-(4-(6-(2-(3-methylbenzylidene)hydrazinyl)-2-morpholino-9H-purin-9-yl)piperidin-1-yl)(phenyl)methanone] displayed a half-inhibitory concentration (IC50) of 10 to 20 nM. Also, the “ADP-Glo kinase assay (%, 10 nM)” value in assay [2] worked out at 76.44%.

As to `Cc1cccc(/C=N/Nc2nc(N3CCOCC3)nc3c2ncn3-c2ccncc2)c1` [Example 103, (E)-4-(6-(2-(3-methylbenzylidene)hydrazinyl)-9-(pyridin-4-yl)-9H-purin-2-yl)morpholine], in assay [1], the 50% inhibitory concentration (IC50) is no more than 10 nM. Besides, the “ADP-Glo kinase assay (%, 10 nM)” value in assay [2] is reported as 91.20%.

In assay [1], `Cc1cccc(/C=N/Nc2nc(N3CCOCC3)nc3c2ncn3-c2cccc(O)c2)c1` [Example 131, (E)-3-(6-(2-(3-methylbenzylidene)hydrazinyl)-2-morpholino-9H-purin-9-yl)phenol] showed a half-maximal inhibitory concentration (IC50) of no more than 10 nM. Moreover, in assay [2], the “ADP-Glo kinase assay (%, 10 nM)” value is 91.40%.

In the case of `Cc1cccc(/C=N/Nc2nc(N3CCOCC3)nc3c2ncn3-c2ccnc(O)c2)c1` [Example 102, (E)-4-(6-(2-(3-methylbenzylidene)hydrazinyl)-2-morpholino-9H-purin-9-yl)pyridin-2-ol], in assay [1], the half-maximal inhibitory concentration (IC50) is no more than 10 nM. For the same compound, the “ADP-Glo kinase assay (%, 10 nM)” value in assay [2] was found to be 91.19%.

Take `Cc1cccc(/C=N/Nc2nc(N3CCOCC3)nc3c2ncn3CC(=O)c2ccccc2)c1` [Example 22, (E)-2-(6-(2-(3-methylbenzylidene)hydrazinyl)-2-morpholino-9H-purin-9-yl)-1-phenylethan-1-one]: the IC50 in assay [1] fell in the range of 10 to 20 nM. Also, the “ADP-Glo kinase assay (%, 10 nM)” value in assay [2] is listed as 66.19%.

For `Cc1cccc(/C=N/Nc2nc(N3CCOCC3)nc3c2ncn3Cc2ccccn2)c1` [Example 20, (E)-4-(6-(2-(3-methylbenzylidene)hydrazinyl)-9-(pyridin-2-ylmethyl)-9H-purin-2-yl)morpholine], the IC50 in assay [1] lay within 10 to 20 nM. In addition, in assay [2], the “ADP-Glo kinase assay (%, 10 nM)” value is on record as 78.53%.

Take `Cc1cccc(/C=N/Nc2nc(N3CCOCC3)nc3c2ncn3CCc2ccccc2)c1` [Example 18, (E)-4-(6-(2-(3-methylbenzylidene)hydrazinyl)-9-phenethyl-9H-purin-2-yl)morpholine]: the IC50 in assay [1] was no more than 10 nM. Further, in assay [2], the “ADP-Glo kinase assay (%, 10 nM)” value is reported as 89.87%.

The compound `Cc1cccc(/C=N/Nc2nc(N3CCOCC3)nc3c2ncn3CC(F)(F)c2ccccn2)c1` [Example 26, (E)-4-(9-(2,2-difluoro-2-(pyridin-2-yl)ethyl)-6-(2-(3-methylbenzylidene)hydrazinyl)-9H-purin-2-yl)morpholine] gave an IC50 in assay [1] of 10 to 20 nM. The “ADP-Glo kinase assay (%, 10 nM)” value in assay [2] is 80.87%.
